Experimental findings from US20200071316A1, “ACTIVATORS OF THE RETINOIC ACID INDUCIBLE GENE "RIG-I" PATHWAY AND METHODS OF USE THEREOF” (Kineta Immuno-Oncology LLC, priority 2018, published 2020) are described below.

SMILES strings stand for the structures. Marks after values point to notes of the source that are not given here. A value given as a limit tells only on which side of the number the result lay.

Experiment [1] deals with IRF3 signaling pathway (IRF-inducible ISG54 promotor) in THP1-Lucia ISG cells. Briefly: THP1-Lucia ISG reporter assay: induction of IRF3-dependent luciferase activity. The note with it: Homo sapiens, 10 μM compound, PMA-differentiated cells, 18 h after stimulation, read-out: THP1 ISG: fold increase of IRF3-dependent luciferase activity over background. The experiment is classed as cell-based. As to the method:
The compounds were evaluated in the THP1-Lucia™ ISG (interferon stimulated genes) reporter assay to determine if the compounds activate the IRF3 signaling pathway. The THP1-Lucia™ cells (InvivoGen) express the secreted luciferase (Lucia) reporter gene under the control of an IRF-inducible promotor. The reporter cell line was developed from human monocytic leukemia THP-1 cells.
(§1) The promotor was comprised of five IFN-stimulated response elements (ISRE) fused to an ISG54 minimal promotor which is unresponsive to NF-kB or AP-1 pathways. […] The IRF3-deficient THP1-Lucia™ ISG IRF3 −/− reporter cell line was generated by CRISPR technology from the parent THP1-Lucia™ ISG reporter cell line.
(§2) 5 THP1-Lucia™ ISG cells and IRF3-deficient THP1-Lucia™ ISG IRF3 −/− cells were differentiated with PMA (100 ng/ml) and stimulated with compounds at the indicated concentrations (5 to 20 μM), positive control, or not treated (background). Luciferase secretion was quantified using the QUANTI-Luc luciferase assay system (InvivoGen) 18 h after stimulation. Data are shown as fold increase luciferase activity over background in Table 7 and represent the IRF3-dependent ISG54 promotor activity by the THP1-Lucia™ ISG cells in response to compounds. […] The fold increase of compounds (10 μM, *20 μM, **5 μM) induced IRF3 dependent luciferase activity is indicated as follows: “−” indicates less than 2.4 fold increase; “+” indicates a 2.4-4.9 fold increase; “++” indicates a 5-9.9 fold increase; “+++” indicates a 10-19 fold increase; “++++” indicates a 20-39 fold increase; “+++++” indicates greater than or equal to 40 fold increase.
For orientation: In a reporter assay the amount or activity of a reporter protein is the signal.

Experiment [2] relates to THP1-Lucia ISG IRF3 −/− cells. Put plainly: IRF3-deficient THP1-Lucia ISG IRF3 −/− reporter assay (counter-screen). The experiment is classed as cell-based. Particulars: Homo sapiens, 10 μM compound, 18 h after stimulation, read-out: THP1 ISG IRF3 −/−: fold increase of luciferase activity over background. As to the method: as §1, §2
Experiment [3] relates to CXCL10 secretion by CT26 cells. Briefly: RIG-I dependent CXCL10 secretion by CT26 colon carcinoma cells (ELISA). The format is cell-based, murine. Particulars: 24 h. Here is the method: (§3) The CT26 murine colon carcinoma cell line (ATCC) was used to evaluate the induction of CXCL10 secretion. CXCL10 is an important chemokine in tumor immune biology that recruits tumor-specific T cells to the tumor. To confirm that compound-mediated CXCL10 production was RIG-I specific, RIG-I deficient CT2-RIG-1−/− cells were generated by Kineta using CRISPR technology.
(§4) CT26 cells were seeded at a density of 1×10^4 cells per well on a 96-well tissue culture plate in 100 μL of cell culture and cells were incubated at 37° C. and 5% CO2 for 24 hr. Next, CT26 cells were treated with compounds at the indicated concentrations. CXCL10 was quantified by ELISA from supernatants taken 24 h after compound stimulation by use of the CXCL10 DuoSet ELISA kit (Cat # DY466, R&D, Minneapolis, Minn., USA) according to the manufacturer's instructions.
(§5) CXCL10 secretion by CT26 cells in response to compounds (in an amount of 5 to 20 μM) of the present disclosure is shown in Table 8. The compound-induced CXCL10 production was RIG-I dependent, since none of the compounds mediated CXCL10 secretion in RIG-I deficient CT26 RIG-1−/− cells. The compounds (10 μM, *20 μM, **5 μM) are indicated in the table as follows: “−” indicates less than 100 pg/mL; “+” indicates 100-199 pg/mL; “++” indicates 200-399 pg/mL; “+++” indicates 400-799 pg/mL; “++++” indicates 800 to 1599 pg/mL; “+++++” indicates greater than or equal to 1600 pg/ml.
In general terms: An ELISA detects its analyte on a solid surface through an enzyme-linked reagent.

For experiment [4], the system named is RIG-I deficient CT26 RIG-1−/− cells. Briefly: CXCL10 secretion in RIG-I deficient CT26 RIG-1−/− cells (ELISA). The experiment is classed as cell-based, murine. The note with it: 24 h. As to the method: as §3, §4, §5

With `Cn1ccc2cc(OCCN3CCOCC3)c(C(=O)Nc3nc4ccc(S(=O)(=O)N5CCCC5)cc4s3)cc21` [Example 67, 1-methyl-5-[2-(morpholin-4-yl)ethoxy]-N-[6-(pyrrolidine-1-sulfonyl)-1,3-benzothiazol-2-yl]-1H-indole-6-carboxamide], the values for the fold induction at 10 µM in experiment [1] and in experiment [2] were 20 to 39 and below 2.4, respectively. In experiment [3] (10 μM compound), the “CXCL10 secretion by CT26 cells” value was “++++ (“++++” indicates 800 to 1599 pg/mL)”. For the same compound, the “CXCL10 secretion by CT26 RIG-I −/− cells” value in experiment [4] (10 μM compound) was “− (“−” indicates less than 100 pg/mL)”.

Take `O=C(Nc1cc2ccc(S(=O)(=O)N3CCC3)cc2s1)c1cc2ccccc2cc1OCCCCN1CCOCC1` [Example 86, N-(6-(azetidin-1-ylsulfonyl)benzo[b]thiophen-2-yl)-3-(4-morpholinobutoxy)-2-naphthamide]: the fold induction at 10 µM in experiment [1] was 20 to 39; in experiment [2] it was below 2.4.

Regarding `O=C(Nc1nc2ccc(S(=O)(=O)N3CCC(O)C3)cc2s1)c1cc2ccccc2cc1OCCCCN1CCOCC1` (centres unmarked) [Example 57, N-{6-[(3-hydroxypyrrolidin-1-yl)sulfonyl]-1,3-benzothiazol-2-yl}-3-[4-(morpholin-4-yl)butoxy]naphthalene-2-carboxamide], the fold induction at 10 µM in experiment [1] is 10 to 19; in experiment [2] it was below 2.4. In experiment [3] (10 μM compound), the “CXCL10 secretion by CT26 cells” value is reported as “+++ (“+++” indicates 400-799 pg/mL)”. In addition, in experiment [4] (10 μM compound), the “CXCL10 secretion by CT26 RIG-I −/− cells” value is “− (“−” indicates less than 100 pg/mL)”.

As to `O=C(Nc1nc2ccc(S(=O)(=O)N3CCOCC3)cc2s1)c1cc2ccccc2cc1OCCN1CCOCC1` [Example 16, 3-[2-(morpholin-4-yl)ethoxy]-N-[6-(morpholine-4-sulfonyl)-1,3-benzothiazol-2-yl]naphthalene-2-carboxamide], the fold induction at 10 µM in experiment [1] was 20 to 39; in experiment [2] it was below 2.4. Also, the “CXCL10 secretion by CT26 cells” value in experiment [3] (10 μM compound) is “++++ (“++++” indicates 800 to 1599 pg/mL)”. For the same compound, in experiment [4] (10 μM compound), the “CXCL10 secretion by CT26 RIG-I −/− cells” value is listed as “− (“−” indicates less than 100 pg/mL)”.

Turning to `O=C(Nc1nc2ccc(S(=O)(=O)N3CCCC3)cc2s1)c1cc2ccccc2cc1OCCN1CC2CCC1CO2` (centres unmarked) [Example 88, 3-(2-{2-oxa-5-azabicyclo[2.2.2]octan-5-yl}ethoxy)-N-[6-(pyrrolidine-1-sulfonyl)-1,3-benzothiazol-2-yl]naphthalene-2-carboxamide], the fold induction at 10 µM in experiment [1] was 20 to 39; in experiment [2] it was below 2.4.

As to `O=C(Nc1cc2ccc(S(=O)(=O)N3CCCC3)cc2s1)c1cc2c(cc1OCCCCN1CCOCC1)OCO2` [Example 73, 6-[4-(morpholin-4-yl)butoxy]-N-[6-(pyrrolidine-1-sulfonyl)-1-benzothiophen-2-yl]-2H-1,3-benzodioxole-5-carboxamide], the fold induction at 10 µM in experiment [1] is 20 to 39; in experiment [2], below 2.4. Moreover, in experiment [3] (10 μM compound), the “CXCL10 secretion by CT26 cells” value was “++++ (“++++” indicates 800 to 1599 pg/mL)”. The “CXCL10 secretion by CT26 RIG-I −/− cells” value in experiment [4] (10 μM compound) is reported as “− (“−” indicates less than 100 pg/mL)”.

As to `O=C(Nc1nc2ccc(S(=O)(=O)N3CCCC3)cc2s1)c1cc2c(cc1OCCN1CCOCC1)CCC2` [Example 91, 6-[2-(morpholin-4-yl)ethoxy]-N-[6-(pyrrolidine-1-sulfonyl)-1,3-benzothiazol-2-yl]-2,3-dihydro-1H-indene-5-carboxamide], the fold induction at 10 µM in experiment [1] is 10 to 19; in experiment [2], below 2.4.

Consider `O=C(Nc1nc2ccc(S(=O)(=O)N3CC4(COC4)C3)cc2s1)c1cc2ccccc2cc1OCCN1CCOCC1` [Example 65, 3-[2-(morpholin-4-yl)ethoxy]-N-(6-{2-oxa-6-azaspiro[3.3]heptane-6-sulfonyl}-1,3-benzothiazol-2-yl)naphthalene-2-carboxamide], for which the fold induction at 10 µM is 2.4 to 4.9 in experiment [1] and below 2.4 in experiment [2]. For the same compound, the “CXCL10 secretion by CT26 cells” value in experiment [3] (10 μM compound) was “+ (“+” indicates 100-199 pg/mL)”. Further, in experiment [4] (10 μM compound), the “CXCL10 secretion by CT26 RIG-I −/− cells” value was “− (“−” indicates less than 100 pg/mL)”.

On to `CS(=O)(=O)Nc1ccc2nc(NC(=O)c3cc4ccccc4cc3OCCN3CCOCC3)sc2c1` [Example 28, N-(6-methanesulfonamido-1,3-benzothiazol-2-yl)-3-[2-(morpholin-4-yl)ethoxy]naphthalene-2-carboxamide], for which the fold induction at 10 µM is 2.4 to 4.9 in experiment [1] and below 2.4 in experiment [2]. For the same compound, the “CXCL10 secretion by CT26 cells” value in experiment [3] (10 μM compound) is “+ (“+” indicates 100-199 pg/mL)”. Moreover, the “CXCL10 secretion by CT26 RIG-I −/− cells” value in experiment [4] (10 μM compound) is “− (“−” indicates less than 100 pg/mL)”.

Consider `O=C(Nc1nc2ccc(S(=O)(=O)N3CCC3)cc2s1)c1cc2c(cc1OCCN1CCOCC1)OCO2` [Example 61, N-[6-(azetidine-1-sulfonyl)-1,3-benzothiazol-2-yl]-6-[2-(morpholin-4-yl)ethoxy]-2H-1,3-bezodioxole-5-carboxamide], for which the fold induction at 10 µM in experiment [1] is 5 to 9.9; in experiment [2] it was below 2.4. Besides, the “CXCL10 secretion by CT26 cells” value in experiment [3] (10 μM compound) is on record as “++ (“++” indicates 200-399 pg/mL)”. Also, the “CXCL10 secretion by CT26 RIG-I −/− cells” value in experiment [4] (10 μM compound) is reported as “− (“−” indicates less than 100 pg/mL)”.

Take `O=C(Nc1cc2ccc(S(=O)(=O)N3CCCC3)cc2s1)c1cc2ccccc2cc1OCCCCN1CCOCC1` [Example 70, 3-[4-(morpholin-4-yl)butoxy]-N-[6-(pyrrolidine-1-sulfonyl)-1-benzothiophen-2-yl]naphthalene-2-carboxamide]: the fold induction at 10 µM in experiment [1] was 10 to 19; in experiment [2], below 2.4. Also, the “CXCL10 secretion by CT26 cells” value in experiment [3] (10 μM compound) is “+++ (“+++” indicates 400-799 pg/mL)”. Further, the “CXCL10 secretion by CT26 RIG-I −/− cells” value in experiment [4] (10 μM compound) was “− (“−” indicates less than 100 pg/mL)”.

For the compound `O=C(Nc1nc2ccc(S(=O)(=O)N3CCCC3)cc2s1)c1ccc(-c2cccnc2)cc1` [Example 53, 4-(pyridin-3-yl)-N-[6-(pyrrolidine-1-sulfonyl)-1,3-benzothiazol-2-yl]benzamide], the fold induction at 10 µM in experiment [1] was 2.4 to 4.9; in experiment [2], below 2.4. For the same compound, the “CXCL10 secretion by CT26 cells” value in experiment [3] (10 μM compound) is recorded as “− (“−” indicates less than 100 pg/mL)”. Also, the “CXCL10 secretion by CT26 RIG-I −/− cells” value in experiment [4] (10 μM compound) is “− (“−” indicates less than 100 pg/mL)”.

As to `O=C(Nc1nc2ccc(S(=O)(=O)N3CCCC3)cc2s1)c1cc2ccccc2cc1OCCN1CCC(F)(F)CC1` [Example 79, 3-[2-(4,4-difluoropiperidin-1-yl)ethoxy]-N-[6-(pyrrolidine-1-sulfonyl)-1,3-benzothiazol-2-yl]naphthalene-2-carboxamide], in experiment [3] (5 μM compound (**)), the “CXCL10 secretion by CT26 cells” value is given as “+** (“+” indicates 100-199 pg/mL)”. Moreover, the “CXCL10 secretion by CT26 RIG-I −/− cells” value in experiment [4] (5 μM compound (**)) is “−** (“−” indicates less than 100 pg/mL)”.

As to `O=C(Nc1nc2ccc(S(=O)(=O)N3CCCC3)cc2s1)c1cc2ccccc2cc1OCCN1C[C@H]2C[C@@H]1CO2` [Example 90], the fold induction at 10 µM in experiment [1] is 20 to 39; in experiment [2] it was below 2.4.

As for `COCC1CN(CCOc2cc3ccccc3cc2C(=O)Nc2nc3ccc(S(=O)(=O)N4CCCC4)cc3s2)CCO1` (centres unmarked) [Example 87, 3-{2-[2-(methoxymethyl)morpholin-4-yl]ethoxy}-N-[6-(pyrrolidine-1-sulfonyl)-1,3-benzothiazol-2-yl]naphthalene-2-carboxamide], the fold induction at 10 µM in experiment [1] was 20 to 39; in experiment [2], below 2.4.

For the compound `O=C(Nc1nc2ccc(S(=O)(=O)N3CCCC3)cc2s1)c1cc2ccccc2cc1OCCN1CC2CC(C1)O2` [Example 89, 3-(2-{6-oxa-3-azabicyclo[3.1.1]heptan-3-yl}ethoxy)-N-[6-(pyrrolidine-1-sulfonyl)-1,3-benzothiazol-2-yl]naphthalene-2-carboxamide], the fold induction at 10 µM in experiment [1] is 10 to 19; in experiment [2] it was below 2.4.
